Source: EP0337503B1, “Fumigation methods and compositions” (Entek Corporation, priority 1983, dated 1984)

Experiments:
[1] = Storage stability: loss of ability of aqueous solutions to generate carbon disulfide upon contact with strong acid; type: physicochemical; details: aqueous solutions of tetrathiocarbonate salts, about 14 to about 16 percent by weight carbon disulfide equivalent, air-tight glass containers, 49° C.; listed as Ca^++
Procedure: Various tetrathiocarbonate salts are evaluated for storage stability by measuring the loss of the ability of aqueous solutions thereof to generate carbon disulfide upon contact with strong acid. Aqueous solutions of the salts listed in the following table, having an equivalent of from about 14 to about 16 percent by weight carbon disulfide, are stored in air-tight glass containers at a temperature of 49° C.

[2] = Effect of pH on production of CS2 from thiocarbonates in citrate-phosphate buffers, gas chromatography of air; type: physicochemical
Procedure: Pure carbon disulfide is also injected, for comparison. A syringe is used to periodically sample air in the bottle, and the air is analyzed by gas chromatography.

nematode larvae = experiment: In-vitro nematocidal test: larvae treated in aqueous suspension, injected into root zone of tomato plants, gall count; type: in vivo, Meloidogyne incognita; details: larvae treated 1 hour; for Gall Count, replicate 2: control 88; for Gall Count, Mean: control 89; for Gall Count, replicate 1: control 90
Procedure: The procedure of Example 2 is repeated except that potassium tetrathiocarbonate is substituted for stabilized ammonium tetrathiocarbonate and an in-vitro nematocidal test is used. In the in-vitro test, the nematode larvae are treated in aqueous suspension for 1 hour at the concentrations of fumigant given in the following table, washed twice with water, and injected into the active root zone of the tomato plants. After thirty days the roots are harvested, examined for galling, giving the results summarized below.

[3] = system: root-knot nematode larvae (Meloidogyne incognita); experiment: Greenhouse nematocide experiment with tomato plants, soil drench, root gall count; type: in vivo; details: 30 days; for Gall Counts, replicate 3: control 1; for Gall Counts, Mean: control 4.0; for Gall Counts, replicate 2: control 7; for Gall Counts, replicate 1: control 4
Procedure: In the experiment, thirty containers are used, each containing about 500 grams of sterilized sandy loam soil. Each container contains one tomato plant. Each container is injected with four 5-milliliter portions of extract from nematode-infested pepper roots, one inch below the soil surface, producing an initial population of 2000 root-knot nematode larvae (Meloidogyne incognita) per container.
Ten treatments are replicated three times, each treatment consisting of drenching the soil with a solution containing the fumigant to provide the dosage of CS2 given in the following table. The solutions are diluted with sufficient water to saturate the soil. The treatments include calcium tetrathiocarbonate, stabilized ammonium tetrathiocarbonate, and carbon disulfide at three levels, plus an untreated control. After drenching, each container is allowed to stand at ambient conditions. The plants are harvested after 30 days of growth, and soil is removed from the roots by a gentle washing with water. By use of a magnifying glass, the number of root galls is counted on each plant.
Results are summarized below, wherein the "Application" represents milligrams of treatment per kilogram of soil, calculated as the thiocarbonate salt and the equivalent carbon disulfide. Gall counts are mean values from the three replicates.

[4] = Decomposition in sandy loam soil at different moisture, CS2 in air space by gas chromatography; type: physicochemical; details: hours to maximum CS2 concentration in the air space
Procedure: A sandy loam soil is placed in 1-liter glass bottles, fitted with stoppers having fluorocarbon liners and silicone rubber septa, to give a soil depth of about 4 cm. […] Thiocarbonate solution or carbon disulfide is injected near the bottom of the soil layer, the bottles are promptly sealed, and the air space in the bottles is sampled at intervals with a syringe, for gas chromatographic analysis of CS2. Results are summarized below, wherein degradation time is the number of hours required to achieve the maximum CS2 concentration in the air space.

Verticillium dahliae = experiment: Fungicidal test, radial growth of mycelia colonies; type: cell-based
Procedure: (§1) Thiocarbonate solutions are used in a test of their fungicidal properties. Cultures of four plant pathogenic fungi are grown upon potato dextrose agar at room temperature, in diffuse natural lighting. After one week, square blocks having 2 millimeter sides are cut from the edges of actively growing mycelia spots on the agar.
(§2) The blocks are immersed in sterile deionized water, as a control, or in dilutions of thiocarbonate solutions using the sterile water, in a closed container. Subsequently, the blocks are removed and placed upon agar in clean plates, and mycelia are allowed to grow for one week.
(§3) Radial growth of mycelia colonies is measured for each of the six to eight replicate plates used for a particular fungus, and average colony radius is calculated. Percent control is defined by the following equation: Percent control =[1-((Average radius of treated plates)/(Average radius of control plates))]x100 [formula]
(§4) Concentrations given for solutions used to treat the agar blocks are expressed in grams of thiocarbonate solution per liter of diluted solution.

Fusarium oxysporum = experiment: Fungicidal test, radial growth of mycelia colonies; type: cell-based; details: listed as CaCS4 (2.8%CS2)
Procedure: as §1, §2, §3, §4

Phytophthora cinnamomi = experiment: Fungicidal test, radial growth of mycelia colonies; type: cell-based
Procedure: as §1, §2, §3, §4

Sclerotium rolfsii = experiment: Fungicidal test, radial growth of mycelia colonies; type: cell-based
Procedure: as §1, §2, §3, §4

[5] = 50 ppm salt (6.3 ppm CS2 equiv. CaCS4; 6.5 ppm K2CS4)
[6] = 100 ppm salt (12.5 ppm CS2 equiv. CaCS4; 13 ppm K2CS4)
[7] = 150 ppm salt (18.8 ppm CS2 equiv. CaCS4; 19.5 ppm K2CS4)
[8] = highest application: 638/89 ppm ((NH4)2CS4·(NH4)2S), 730/91 (CaCS4), 97 ppm (CS2)
[9] = lowest application: 213/30 ppm ((NH4)2CS4·(NH4)2S), 245/31 (CaCS4), 32 ppm (CS2)
[10] = middle application: 425/60 ppm ((NH4)2CS4·(NH4)2S), 490/61 (CaCS4), 65 ppm (CS2)
[11] = 1 g/l, listed as CaCS4 (2.8%CS2)
[12] = 10 g/l, listed as CaCS4 (2.8%CS2)

Question: What does the source list for S=C(S)SS [CaCS4, calcium tetrathiocarbonate]?
Answer: Half-life (months) [1]: 5.0 months; Half-life (minutes) for production of carbon disulfide ([2]; pH 5.2, 125 milligrams per liter of thiocarbonate ion): 1 min; Half-life (minutes) for production of carbon disulfide ([2]; pH 6.0, 125 milligrams per liter of thiocarbonate ion): 1.8 min; Half-life (minutes) for production of carbon disulfide ([2]; pH 7.0, 125 milligrams per liter of thiocarbonate ion): 2.7 min; Half-life (minutes) for production of carbon disulfide ([2]; pH 8.0, 125 milligrams per liter of thiocarbonate ion, CaCS4 values above pH 7 called unreliable): 8.0 min; Half-life (minutes) for production of carbon disulfide ([2]; pH 9.0, 125 milligrams per liter of thiocarbonate ion, CaCS4 values above pH 7 called unreliable): 11.3 min; Gall Count, replicate 2 (nematode larvae; [5]): 149; Gall Count, Mean (nematode larvae; [5]): 167; Gall Count, replicate 1 (nematode larvae; [5]): 185; Gall Count, replicate 2 (nematode larvae; [6]): 184; Gall Count, Mean (nematode larvae; [6]): 158; Gall Count, replicate 1 (nematode larvae; [6]): 132; Gall Count, replicate 2 (nematode larvae; [7]): 66; Gall Count, Mean (nematode larvae; [7]): 49; Gall Count, replicate 1 (nematode larvae; [7]): 32; Gall Counts, replicate 3 [3, 8]: 9; Gall Counts, Mean [3, 8]: 7.0; Gall Counts, replicate 2 [3, 8]: 9; Gall Counts, replicate 1 ([3]; highest application: 638 ppm salt/89 ppm Eq. CS2 ((NH4)2CS4·(NH4)2S), 730/91 (CaCS4), 97 ppm (CS2)): 3; Gall Counts, replicate 3 [3, 9]: 23; Gall Counts, Mean [3, 9]: 15.7; Gall Counts, replicate 2 [3, 9]: 8; Gall Counts, replicate 1 ([3]; lowest application: 213 ppm salt/30 ppm Eq. CS2 ((NH4)2CS4·(NH4)2S), 245/31 (CaCS4), 32 ppm (CS2)): 16; Gall Counts, replicate 3 [3, 10]: 7; Gall Counts, Mean [3, 10]: 7.3; Gall Counts, replicate 2 [3, 10]: 4; Gall Counts, replicate 1 ([3]; middle application: 425 ppm salt/60 ppm Eq. CS2 ((NH4)2CS4·(NH4)2S), 490/61 (CaCS4), 65 ppm (CS2)): 11; Degradation Time ([4]; Soil Moisture 0 % of Saturation): 4 h; Degradation Time ([4]; Soil Moisture 50 % of Saturation): 5 h; Degradation Time ([4]; Soil Moisture 100 % of Saturation): 48 h; Percent Control Verticillium dahliae (Verticillium dahliae; [11]): 13%; Percent Control Verticillium dahliae (Verticillium dahliae; [12]): 22%; Percent Control Verticillium dahliae (Verticillium dahliae; 100 g/l): 100%; Percent Control Fusarium oxysporum (Fusarium oxysporum; 1 g/l): 3%; Percent Control Fusarium oxysporum (Fusarium oxysporum; 10 g/l): 18%; Percent Control Fusarium oxysporum (Fusarium oxysporum; 100 g/l thiocarbonate solution per liter of diluted solution): 100%; Percent Control Phytophthora cinnamomi (Phytophthora cinnamomi; [11]): 56%; Percent Control Phytophthora cinnamomi (Phytophthora cinnamomi; [12]): 56%; Percent Control Phytophthora cinnamomi (Phytophthora cinnamomi; 100 g/l): 100%; Percent Control Sclerotium rolfsii (Sclerotium rolfsii; [11]): 46%; Percent Control Sclerotium rolfsii (Sclerotium rolfsii; [12]): 62%; Percent Control Sclerotium rolfsii (Sclerotium rolfsii; 100 g/l): 100%
